Experimental data as given in paper PMC6158327, “Negative Allosteric Modulators of mGlu7 Receptor as Putative Antipsychotic Drugs” (Frontiers in Molecular Neuroscience, 2018).

Key:
[1] = system: MK-801-induced hyperactivity; experiment: MK-801-induced hyperactivity; type: in vivo, Albino Swiss mice; conditions: 30 min prior to MK-801 (0.35 mg/kg, i.p.), mice
Experimental: The locomotor activity was recorded individually for each animal in OPTO-M3 locomotor activity cages (Columbus Instrument) linked online to a compatible PC activity, as described previously by [Woźniak et al., 2016b]. Each cage (13 cm × 23 cm × 15 cm) was surrounded with an array of photocell beams. […] The locomotor activity was measured for 60 min immediately after MK-801 administration.

[2] = system: field potentials in frontal cortical slices; experiment: Electrophysiology: field potentials in frontal cortical slices, WILD mice; parameters: species or system C57BL/6J WT mice; conditions: for Before-after effect of the drug on FP amplitude: WILD group; for S (factor proportional to the slope of the curve) / Uh (stimulation intensity evoking FP of half-maximum amplitude) / Vmax (maximum FP amplitude, Boltzmann fit): slices from WILD mice, after 20 min drug superfusion
Excerpt: Mice (wild and KO, approx. 25 g) were housed under a controlled light/dark cycle (light on: 0700–1900) and had free access to standard food and tap water. Mice were anesthetized with isoflurane (Aerrane, Baxter) decapitated, their brains were dissected and immersed in an ice-cold artificial cerebrospinal fluid (ACSF) of the following composition (in mM): NaCl (130), KCl (5), CaCl2 (2.5), MgSO4 (1.3), KH2PO4 (1.25), NaHCO3 (26), and glucose (10), bubbled with a mixture of 95% O2/5% CO2 to pH 7.4. Frontal cortical slices (bregma 1.9–1.4, 380 μm) were cut in a coronal plane using a vibrating microtome and they were stored at 32°C. A single slice was next transferred to the recording chamber (32°C ± 0.5°C) and superfused at 2.5 ml/min with a ACSF.
A bipolar stimulating electrode (FHC) was placed approx. 2 mm lateral to the midline and approx. 1.0 mm below the pial surface (in layer V) (Figure 1). Stimuli (duration: 0.2 ms) were applied at 0.033 Hz using a constant-current stimulus isolation unit (WPI). Field potentials (FPs) were recorded using glass micropipettes filled with ACSF (1–3 MΩ), which were placed approx. 0.2 mm below the cortical surface (in layer II/III). FPs were amplified (Axoprobe 1A, Axon Instruments), A/D converted at 10 kHz and stored using Micro1401 interface and Signal 4 software (CED).
The stimulus–response curves obtained for each slice were fit with the Boltzmann equation: Vi = Vmax/(1 + exp[(u - Uh)/-S]), where Vmax is the maximum FP amplitude; u is the stimulation intensity; Uh is the stimulation intensity evoking FP of half-maximum amplitude; S is the factor proportional to the slope of the curve; “exp” is exponentiation – mathematical operation. The results are expressed as the means ± SEM. Statistical analyses were carried out using t-test ([Tokarski et al., 2011]).
For each slice, at the beginning of the experiment an input-output curve was generated in ACSF. A stimulus-response (input-output) curve was made for each slice. […] One response was recorded at each stimulation intensity. […] Statistical analyzes were carried out using paired t-test and ANOVA.

[3] = Pharmacokinetic study, brain concentration after i.p. injection; type: in vivo, mouse (Albino Swiss); conditions: mouse; for AUC / Cmax / Tmax / half-life: Albino Swiss, ip, brain, 10 mg/kg i.p.
Experimental: The mice were then perfused with 0.1M PBS to remove remaining blood from the body, and the brains were taken out for the analysis. Blood was centrifuged at 2000 rpm for 10 min at 4°C, and the plasma was collected and frozen at -80°C for further analysis.
Plasma and tissue samples from all drug-treated animals were thawed at room temperature prior to use. Standard protocol of sample preparation: 200 μl acetonitrile was added to the eppendorfs with 50 μl of studied plasma samples or tissue homogenate. Samples were mixed for 5 min on a mixer at 25°C and 1400 rpm. Tubes were then centrifuged at 2000 × g for 15 min at 4°C. About 180 μl of each supernatant was transferred into a plate well. Finally, each sample was injected into the column.
In calibration curve – serial dilution method, plasma was spiked with standard at different concentration levels. Acetonitrile was added. Mixed, centrifuged supernatant was taken.
Plasma and tissue samples from all drug-treated animals at selected time points are analyzed using previously developed a non-validated liquid chromatography-tandem mass spectrometry (LC-MS)/MS method.
LC/MS analysis was carried on a Bruker amaZon SL mass spectrometer using positive/ negative ion ESI mode. Chromatographic separation was achieved on a Ascentis Express C18 column, (5 cm × 2.1 mm, […], Supelco Technologies) at room temperature with a thermostatted column oven. A gradient elution of eluents A [acetonitrile (LiChrosolv, Reag. Ph Eur) +0.1% formic acid (Sigma–Aldrich, 98–100%)] and B (water +0.1% formic acid) was used for separation. The flow rate was set at 1 ml/min. The injection volume was 20 μl, and the time of injection was 4 min.
An Ion trap mass spectrometer (Bruker amaZon SL) was equipped with an electrospray source, operating in the positive/negative ion mode. Data were collected and processes using Bruker Quant Analysis software. Quantification of analytes was performed in SIM mode.

[4] = system: DOI-induced head twitches; experiment: DOI-induced head twitches; type: in vivo, Albino Swiss mice; conditions: mice; for Effect on DOI-induced head twitches, acute: 30 min before DOI (2.5 mg/kg)
Experimental: The experiment was performed according to previously described procedure ([Wierońska et al., 2012], [2013]). Immediately after a 30 min acclimatization period, DOI (2.5 mg/kg, i.p.) was administered in order to induce head twitches. The number of head twitches was then counted for 20 min. […]

[5] = target: T1, Cytochrome P450 1A2 (Homo sapiens, UniProt P05177); experiment: Cytochrome P450 inhibition, 1A2; type: in vitro ADME
T1 sequence (P05177 1-516): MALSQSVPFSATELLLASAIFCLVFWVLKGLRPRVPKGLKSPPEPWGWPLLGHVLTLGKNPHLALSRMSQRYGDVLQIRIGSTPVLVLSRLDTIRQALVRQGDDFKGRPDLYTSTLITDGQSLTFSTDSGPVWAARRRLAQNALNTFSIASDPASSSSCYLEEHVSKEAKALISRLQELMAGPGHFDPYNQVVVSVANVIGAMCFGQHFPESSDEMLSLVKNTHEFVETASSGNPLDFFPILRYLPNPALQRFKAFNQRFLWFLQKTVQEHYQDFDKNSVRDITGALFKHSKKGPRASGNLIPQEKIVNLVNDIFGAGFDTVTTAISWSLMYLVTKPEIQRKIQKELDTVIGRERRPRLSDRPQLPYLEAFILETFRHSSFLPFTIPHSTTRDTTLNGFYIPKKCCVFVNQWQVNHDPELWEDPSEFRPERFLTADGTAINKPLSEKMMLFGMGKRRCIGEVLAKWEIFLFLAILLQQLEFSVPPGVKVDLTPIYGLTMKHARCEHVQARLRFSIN

[6] = target: Cytochrome P450 2D6 (Homo sapiens, UniProt P10635); experiment: Cytochrome P450 inhibition, 2D6; type: in vitro ADME
Chain of Cytochrome P450 2D6 (P10635 whole entry): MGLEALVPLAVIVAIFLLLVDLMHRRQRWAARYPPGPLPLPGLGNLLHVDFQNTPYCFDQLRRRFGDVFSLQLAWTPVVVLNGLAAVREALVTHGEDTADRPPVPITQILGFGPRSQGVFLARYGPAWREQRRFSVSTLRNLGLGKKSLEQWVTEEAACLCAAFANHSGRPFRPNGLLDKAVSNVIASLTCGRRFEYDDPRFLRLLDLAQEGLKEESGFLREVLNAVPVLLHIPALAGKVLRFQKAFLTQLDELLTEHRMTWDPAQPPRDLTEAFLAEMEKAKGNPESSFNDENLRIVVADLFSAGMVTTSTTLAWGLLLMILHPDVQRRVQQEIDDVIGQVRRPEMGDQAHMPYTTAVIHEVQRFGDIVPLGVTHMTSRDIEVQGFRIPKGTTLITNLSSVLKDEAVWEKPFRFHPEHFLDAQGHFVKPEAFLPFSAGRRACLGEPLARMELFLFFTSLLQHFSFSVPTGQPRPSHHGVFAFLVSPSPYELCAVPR

| SMILES | Effect on MK-801-induced hyperactivity ([1]; 15 mg/kg i.p.) | Before-after effect of the drug on FP amplitude [2] [%] | S (factor proportional to the slope of the curve) [2] | Uh (stimulation intensity evoking FP of half-maximum amplitude) [2] | Vmax (maximum FP amplitude, Boltzmann fit) [2] | Concentration in brain ([3]; 0,5 h after 10 mg/kg i.p.) | Concentration in brain ([3]; 0,25 h after 10 mg/kg i.p.) | Concentration in brain ([3]; 1 h after 10 mg/kg i.p.) | Concentration in brain ([3]; 2 h after 10 mg/kg i.p.) | AUC [3] [µM·h] | Cmax [3] [µM] | Tmax [3] [min] | half-life [3] [min] | Effect on DOI-induced head twitches, chronic (10 days) administration ([4]; 5 mg/kg) | IC50 [5] [µM] | IC50 [6] [µM] | further results |
| --- | --- | --- | --- | --- | --- | --- | --- | --- | --- | --- | --- | --- | --- | --- | --- | --- | --- |
| CCc1nc2c(o1)CC(c1ccc(C)cc1C)CC2=O (stereo not drawn) [ADX71743, 6-(2,4-Dimethylphenyl)-2-ethyl-6,7-dihydro-4(5H)-benzoxazolone] | decreased MK-801-induced hyperactivity in a statistically significant way | 116 | 6.53 ± 0.3 | 26.07 ± 1.3 | 2.531 ± 0.1^∗∗∗ | 2,09 μM | 3,38 μM | 0,79 μM | 0,09 μM | 2.27 | 3.38 | 15 | 20.4 | statistical effect | > 10 | > 10 | Effect on MK-801-induced hyperactivity ([1]; 5 mg/kg i.p.): decreased MK-801-induced hyperactivity in a statistically significant way; Effect on DOI-induced head twitches, chronic (10 days) administration ([4]; 2.5 mg/kg): statistical effect |
| COc1ccc(-c2cc3onc(-c4ccncc4)c3c(=O)n2C)cc1 [MMPIP, 6-(4-Methoxyphenyl)-5-methyl-3-(4-pyridinyl)-isoxazolo(4,5-c)pyridin-4(5H)-one] | significant reversal of MK-801-induced effect | 123 | 9.37 ± 0.83 | 26.93 ± 1.6 | 2.53 ± 0.3^∗∗∗ | 5,42 μM | 3,63 μM | 2,44 μM | 1,79 μM | 8.98 | 5.42 | 30 | 105 | statistically significant effect | > 10 | > 10 | Before-after effect, WILD group higher than KO animals ([2]; WILD vs. KO): about 23%; Effect on DOI-induced head twitches, acute ([4]; 5 mg/kg i.p.): significantly reduced DOI-induced head twitches; Effect on DOI-induced head twitches, acute ([4]; 10 mg/kg i.p.): significantly reduced DOI-induced head twitches; Effect on DOI-induced head twitches, chronic (10 days) administration ([4]; 10 mg/kg): statistically significant effect; Effect on DOI-induced head twitches, acute ([4]; 15 mg/kg i.p.): significantly reduced DOI-induced head twitches |
